Patent US20160235677A1, “METHOD OF CONVERTING A CRYSTALLINE COMPOUND TO AN AMORPHOUS COMPOUND, METHOD OF INCREASING THE SOLUBILITY OF A CRYSTALLINE COMPOUND IN A BIORELEVANT FLUID, AND NANOPARTICLES THAT ACHIEVE SUPERSATURATION” (Nanocopoeia, LLC., priority 2014, published 2016)
Values after ≈ are worked out from the molar mass of the structure shown. Like-named read-outs stand apart in the source and are kept apart here.

Columns and labels:
[1] = X-Ray Powder Diffraction (XRD) crystallinity / physical state; type: physicochemical; details: griseofulvin materials, result in words
Experimental: X-ray powder diffraction is performed at room temperature using a Bruker D8 Discover using a Cu Kα radiation, point source filtered with a graphite monochromator and a Bruker Hi-Star two-dimensional x-ray detector (Bruker, Karlsruhe, Germany). Powder samples are pressed onto a sample holder made of single-crystal quartz cut off-axis. The reflected intensity is collected at 0.04° resolution from 2Θ=2° to 62° with an acquisition time of 20 minutes. Data analysis is performed using the JADE 8.0 software package (Materials Data Inc., Livermore, Calif.) with whole pattern fitting. The test method has a detection limit of 2% crystallinity. […]

[2] = Dissolution in Biorelevant Medium Using Non-Sink Condition (griseofulvin powders in FaSSIF); type: physicochemical; details: GF dissolution in FaSSIF, 5 hour experiment
Experimental: A modified low-volume shaker flask method is used to assess the dissolution behavior of samples under supersaturated conditions. A 75 mL aliquot of FaSSIF, adjusted to pH 6.5, is added to each of six 150 mL Erlenmeyer flasks, which are then stoppered. The liquid is then heated to and maintained at 37° C.±1° C. using a benchtop incubated orbital shaker with a multi position stir plate (Forma Scientific 4520, Thermo Fisher Scientific, Waltham, Mass.). A 38 mm×9 mm stir bar is placed in each flask and stirring is started at 150 rotations per minute (RPM). A control sample, containing the compound of interest, and experimental samples are added to separate flasks in amounts sufficient to provide an amount of the compound of interest equivalent to the control sample. At each of 5 min, 15 min, 20 min, 30 min, 45 min, 60 min, 120 min, 240 min, and 300 min, 3 mL of dissolution media is removed from each flask, and immediately filtered through a 13 mm, 0.2 μm nylon filter with glass prefilter (EMD Millipore, Billerica, Mass.) after first discarding the first 2 mL of the sample. […]
The HPLC analysis is performed using an Ace C18, 2.1×150 mm, 3 μm chromatographic column maintained at 30° C. […] Quantification is performed based on linear calibration curve ranging from 10 ng/mL to 1000 ng/mL using peak response ratio.
For the Dissolution in Biorelevant Medium Using Non-Sink Condition analysis, a 24 mg sample of Control 1, i.e., griseofulvin powder, and an amount of Examples 1-7 sufficient to provide an amount of griseofulvin equivalent to the amount of Control 1, i.e., 24 mg, was added to each flask. Quantification was performed based on linear calibration curve ranging from 10 to 1000 ng/mL using peak response ratio. […]
Dry powder produced as describe above in Examples 8-11 was evaluated in the biorelevant medium FaSSIF, comparing ENS-processed powders with physical mixtures at similar ratios of GF:SP. […]

[3] = Caco-2 Monolayer Test Method; type: in vitro ADME; details: human; Caco-2 monolayers, apical to basolateral, powder equivalent to 200 μg GF in 1 mL buffer pH 7.4, 2 h
Experimental: Caco-2 monolayers are prepared in Millipore 96-cell Caco-2 plates and are used after a 3-week differentiation period. The monolayers separate the apical, or donor well, from the basolateral, or recipient well. The buffer used for the apical side is 1.98 g/L glucose in 10 mM HEPES, Hank's Balanced Salt Solution (HBSS) lx, with calcium, magnesium, without phenol red (HyClone, Logan, Utah) pH 7.4. The impermeable dye Lucifer yellow (in an amount of 100 μM) is added to test monolayer integrity. The basolateral side buffer is buffer, pH 7.4, without dye. […] The amount of test powder is selected to assure that if the powder was completely dissolved, the amount is sufficient to achieve ˜12 to 13 times the saturation concentration of the compound of interest previously measured in HBSS (15 μg/mL), in other words, a supersaturated solution. […] Where the compound of interest is not a substrate for p-glycoprotein (pGP), B→A efflux is not measured.
Buffer test samples are added to apical wells at 1 h after preparation and buffer alone is added to the basolateral side. […] The plates are assumed to be intact if there is no increase in fluorescence from leaking Lucifer yellow dye from the apical side. Individual cell monolayers are assumed intact if there is no increase in fluorescence in aliquots taken from the basolateral wells. […]

[4] = Equilibrium / saturation solubility in test media; type: physicochemical; details: GF, previously measured
[5] = non-sink, 24 mg GF equivalent in 75 mL, 37° C.

COC1=CC(=O)C[C@@H](C)[C@]12Oc1c(Cl)c(OC)cc(OC)c1C2=O [Control 1, (+)-griseofulvin]
physical state by XRD [1]: completely crystalline material | Cmax [2, 5]: 18.3 µg/mL | Tmax [2, 5]: 30 min | AUC ([2]; area under the concentration-time curve): 5,202 | Papp A→B at 2 h, 200 μg/mL [3]: 28 ± 2.5 ×10⁻⁶ cm/s | solubility thermodynamic ([4]; HBSS, saline or isotonic, read-out: saturation concentration in HBSS): 15 µg/mL (≈ 42.5 µM) | solubility thermodynamic ([4]; water, thermodynamic from solid, read-out: equilibrium solubility in water): 6 to 10 µg/mL (≈ 17 to 28.3 µM)
